Measured values published in article doi:10.1101/2025.04.25.650653, “Hierarchical small molecule inhibition of MYST acetyltransferases” (bioRxiv, 2025).
Where “and” joins values, the source holds several entries; their conditions need not be identical. Identical values can stand only once.

System: histone modifications in MCF-7 cells
Experiment: Histone modification analysis by bottom-up LC-MS/MS
Type: cell-based
Conditions: Replicates 1-3
Text: In this approach. […] Histones are then extracted from cell pellets and chemically derivatized with propionic anhydride, digested with trypsin, subjected to a second round of propionylation, and analyzed by LC-MS/MS. Measuring the relative intensity of modified versus unmodified forms of individual histone peptides enables simultaneous monitoring of multiple potential biomarkers of MYST inhibition. To minimize false positives, we focused on abundant and reproducible modifications (average stoichiometry of greater than 1% across triplicate samples, standard deviation less than or equal to the average measurement). To account for potential histone modification crosstalk, changes in both acetylated and methylated peptides were evaluated. 38 modified peptides passed this reproducible detection threshold including several established KAT biomarkers[41] including H3K9Ac (KAT2A/B), H3K18Ac (KAT3A/B), H3K14Ac (KAT7), H3K23Ac (KAT6A/B), H4K16Ac (KAT8), and H2A.ZK4/K7Ac (KAT5; Fig. 4B).
Histone modification analysis
MCF-7 cells were cultured at 37 °C under 5% CO2 in EMEM (Quality Biological, 112-016-101) with 0.01 mg/mL human recombinant insulin (Sigma Aldrich, 91077C), 2 mM L-glutamine (Quality Biological, 118- […]
human recombinant insulin.
1119, WM-3835). Following 24 h inhibitor treatment, cells were washed with ice-cold 1× PBS and scraped in 150 µL of Nuclear Isolation Buffer (NIB) containing 0.1% NP-40 for histone extraction using a modified protocol from the Garcia laboratory. 9 Briefly, cell suspensions were incubated on ice for 5 minutes, and […]
nuclei were pelleted by centrifugation (600 rcf, 4°C, 5 min). Pelleted nuclei were washed twice with 150 μL of detergent-free NIB buffer, followed by centrifugation (600 rcf, 4°C, 5 min) to remove all detergent.
Nuclei were then resuspended in 400 μL of 0.4 N H₂SO₄ and rotated at 4°C overnight for acid extraction of histones. The following day, samples were centrifuged (11,000 rcf, 4°C, 10 min) and the histone-containing supernatant was transferred to a fresh tube. Trichloroacetic acid (100% TCA) was added to achieve a final concentration of 20% (v/v), tubes were inverted once to mix, and histone precipitation was performed on ice for at least 3 hours or overnight at 4°C. Precipitated histones were collected by centrifugation (11,000 rcf, 4°C, 10 min) and the supernatant carefully removed, leaving a visible film of histones on the tube wall or bottom. Histone pellets were subjected to sequential washes with 1 mL of ice-cold acidified acetone (0.1% 12 N HCl) followed by 1 mL of 100% ice-cold acetone, with centrifugation (11,000 rcf, 4°C, 5 min) after each wash. Samples were air-dried at room temperature, resuspended in 40 µL of ddH₂O, and protein […]
analysis, 1-2 µg of purified histones were loaded per lane and processed according to the general immunoblotting protocol described in General Materials and Methods.
Analysis of histone modifications by LC-MS/MS
Preparation of histone samples for LC-MS/MS was performed analogously to the procedure for immunoblotting above, with the following modifications. MCF7 cells (4.2 × 106) were seeded in 15 cm dishes and treated with PF-9363 or vehicle. Experiments were performed in triplicate. Following treatment and PBS washing, cells were scraped and collected in 15 mL falcon tubes, pelleted (500 rcf, 4°C, 5 min), resuspended in 1 mL cold PBS, transferred to microcentrifuge tubes, and pelleted again before flash-freezing in liquid nitrogen for storage at -80°C. For extraction, cell pellets (~100 μL) were resuspended in NIB buffer at a 1:10 ratio, and cells were lysed with NIB buffer containing 0.2% NP-40 for 8 minutes on ice. Nuclei were pelleted at 1,000 rcf for 8 minutes and washed three times with 500 μL detergent-free NIB buffer. Histones were extracted using 800 μL of 0.2 M H₂SO₄, and after centrifugation (3,400 rcf, 4°C, 10

## COc1cccc(OC)c1S(=O)(=O)Nc1noc2cc(Cn3cccn3)cc(OC)c12 [PF-9363]
PF-9363 1
  Ratio, H2A1_4_11 unmod: 0.8988 and 0.8885 and 0.9043
  Ratio, H2A1_36_42 unmod: 0.9987 (2×) and 0.999
  Ratio, H2A3_36_42 unmod: 1
  Ratio, H2AJ_4_11 K5acK9ac: 0.8841 and 0.8218 and 0.8897
  Ratio, H2AV_1_19 K4ac: 0.04613 and 0.03379 and 0.05235
  Ratio, H2AV_1_19 unmod: 0.7904 and 0.9003 and 0.7876
  Ratio, H2AX_4_11 unmod: 0.3103 and 0.2578 and 0.2996
  Ratio, H2AX_36_42 unmod: 1
  Ratio, H2AZ_1_19 K11ac: 0.007104 and 0.02367 and 0.02119
  Ratio, H2AZ_1_19 unmod: 0.8748 and 0.8677 and 0.8766
  Ratio, H3_73_83 K79me1: 0.08571 and 0.09293 and 0.08865
  Ratio, H3_73_83 K79me2: 0.07582 and 0.06553 and 0.05074
  Ratio, H3_73_83 unmod: 0.8373 and 0.84 and 0.8592
  Ratio, H4_4_17 K12acK16ac: 0.009843 and 0.01149 and 0.01038
  Ratio, H4_4_17 unmod: 0.6943 and 0.6691 and 0.6837
  Ratio, H4_20_23 K20me1: 0.04112 and 0.02779 and 0.03237
  Ratio, H4_20_23 unmod: 0.02967 and 0.03053 and 0.03337
PF-9363 10
  Ratio, H2A1_1_11 K5ac: 0.7349 and 0.6528 and 0.8541
  Ratio, H2A1_4_11 K5ac: 0.05941 and 0.05561 and 0.05439
  Ratio, H2A1_4_11 K9ac: 0.0376 and 0.02679 and 0.04578
  Ratio, H2A1_4_11 unmod: 0.8844 and 0.9105 and 0.8938
  Ratio, H2A1_36_42 unmod: 0.9994 and 0.9989 and 0.9987
  Ratio, H2A3_36_42 unmod: 1
  Ratio, H2AJ_4_11 K5acK9ac: 0.87 and 0.9304 and 0.8571
  Ratio, H2AV_1_19 K4ac: 0.03545 and 0 and 0.04516
  Ratio, H2AV_1_19 unmod: 0.7519 and 0 and 0.8693
  Ratio, H2AX_4_11 unmod: 0.3078 and 0.3089 and 0.315
  Ratio, H2AX_36_42 unmod: 0.9999 and 1 (2×)
  Ratio, H2AZ_1_19 K11ac: 0.002627 and 0 and 0.03573
  Ratio, H2AZ_1_19 unmod: 0.8481 and 0 and 0.8795
  Ratio, H3_73_83 K79me1: 0.0968 and 0.09055 and 0.1061
  Ratio, H3_73_83 K79me2: 0.04989 and 0 and 0.05862
  Ratio, H3_73_83 unmod: 0.8517 and 0.9094 and 0.8343
  Ratio, H4_4_17 K12acK16ac: 0.004929 and 0.3101 and 0.006064
  Ratio, H4_4_17 unmod: 0.8097 and 0 and 0.7957
  Ratio, H4_20_23 K20me1: 0.03215 and 0 and 0.02863
  Ratio, H4_20_23 unmod: 0.01905 and 0.02691 and 0.02102
PF-9363 30
  Ratio, H2A1_1_11 K5ac: 0.8425 and 0.9367 and 0.7907
  Ratio, H2A1_4_11 K5ac: 0.04965 and 0.0448 and 0.04948
  Ratio, H2A1_4_11 K9ac: 0.02646 and 0.04262 and 0.03503
  Ratio, H2A1_4_11 unmod: 0.9191 and 0.9063 and 0.9088
  Ratio, H2A1_36_42 unmod: 0.9989 and 0.9987 and 0.9988
  Ratio, H2A3_36_42 unmod: 1
  Ratio, H2AJ_4_11 K5acK9ac: 0.9299 and 0.8746 and 0.8721
  Ratio, H2AV_1_19 K4ac: 0.04726 and 0.04134 and 0.0354
  Ratio, H2AV_1_19 unmod: 0.8732 and 0.735 and 0.7339
  Ratio, H2AX_4_11 unmod: 0.3537 and 0.3214 and 0.3151
  Ratio, H2AX_36_42 unmod: 1
  Ratio, H2AZ_1_19 K11ac: 0 and 0.03845 and 0.003881
  Ratio, H2AZ_1_19 unmod: 1 and 0.8991 and 0.9454
  Ratio, H3_73_83 K79me1: 0.07412 and 0.08491 and 0.08741
  Ratio, H3_73_83 K79me2: 0.05912 and 0.06141 and 0.04678
  Ratio, H3_73_83 unmod: 0.865 and 0.8523 and 0.8643
  Ratio, H4_4_17 K12acK16ac: 0.3308 and 0.002262 and 0.2125
  Ratio, H4_4_17 unmod: 0.05921 and 0.8851 and 0.358
  Ratio, H4_20_23 K20me1: 0 and 0.03437 and 0.03685
  Ratio, H4_20_23 unmod: 0.02728 and 0.02218 and 0.01429
